According to patent publication US10202658B2, “Methods for determining hypersusceptibility of HIV-1 to non-nucleoside reverse transcriptase inhibitors” (Monogram Biosciences, Inc., priority 2005, dated 2019):

Tests used:
Assay type in all cases: cell-based
[1] = test system: HIV-1, RT mutations: 1 NAM; test: PhenoSense resistance test vector assay, clinical isolates with 1 NAM; conditions: share of samples designated hypersusceptible
Description: (§1) In preferred embodiments, the phenotypic analysis of NNRTI hypersusceptibility is performed using PHENOSENSE™ (ViroLogic Inc., South San Francisco, Calif.). See Petropoulos et al., 2000, Antimicrob. Agents Chemother. 44:920-928; U.S. Pat. Nos. 5,837,464 and 6,242,187. PHENOSENSE™ is a phenotypic assay that achieves the benefits of phenotypic testing and overcomes the drawbacks of previous assays. Because the assay has been automated, PHENOSENSE™ provides high throughput methods under controlled conditions for determining NNRTI resistance, susceptibility, or hypersusceptibility of a large number of individual viral isolates.
(§2) The assay can be performed by first co-transfecting host cells with RTV DNA and a plasmid that expresses the envelope proteins of another retrovirus, for example, amphotropic murine leukemia virus (MLV). Following transfection, viral particles can be harvested from the cell culture and used to infect fresh target cells in the presence of varying amounts of anti-viral drug(s). The completion of a single round of viral replication in the fresh target cells can be detected by the means for detecting replication contained in the vector. In a preferred embodiment, the completion of a single round of viral replication results in the production of luciferase. By monitoring the amount of, e.g., luciferase activity in the presence of the varying amounts of antiviral drug(s), a resistance curve can be constructed by plotting luciferase activity versus drug concentration. The susceptibility of an HIV, or population of HIV, can be determined by measuring the concentration of antiviral drug at which the luciferase activity detected is half-maximal. This number, the IC50, provides a standard and convenient measure of drug resistance.
(§3) Patient-derived segment(s) corresponding to the HIV protease and reverse transcriptase coding regions were amplified by the reverse transcription-polymerase chain reaction method (RT-PCR) using viral RNA isolated from viral particles present in the plasma or serum of HIV-infected individuals as follows. […]

[2] = test system: HIV-1, RT mutations: 65R; test: PhenoSense resistance test vector assay, clinical isolates with 65R; conditions: share of samples designated hypersusceptible
Description: as §1
(§4) The assay can be performed by first co-transfecting host cells with RTV DNA and a plasmid that expresses the envelope proteins of another retrovirus, for example, amphotropic murine leukemia virus (MLV). Following transfection, viral particles can be harvested from the cell culture and used to infect fresh target cells in the presence of varying amounts of anti-viral drug(s). The completion of a single round of viral replication in the fresh target cells can be detected by the means for detecting replication contained in the vector. […] The susceptibility of an HIV, or population of HIV, can be determined by measuring the concentration of antiviral drug at which the luciferase activity detected is half-maximal. […]

[3] = test system: HIV-1, RT mutations: 69X; test: PhenoSense resistance test vector assay, clinical isolates with 69X; conditions: share of samples designated hypersusceptible
Description: as §1, §2, §3

[4] = test system: HIV-1, RT mutations: 65R and 184V; test: PhenoSense resistance test vector assay, clinical isolates with 65R and 184V; conditions: share of samples designated hypersusceptible
Description: as §1, §4

[5] = test system: HIV-1, RT mutations: T215Y and 2 TAMs; test: PhenoSense resistance test vector assay, clinical isolates with T215Y and 2 TAMs; conditions: share of samples designated hypersusceptible
Description: as §1, §4

[6] = test system: HIV-1, RT mutations: K70R and 2 TAMs; test: PhenoSense resistance test vector assay, clinical isolates with K70R and 2 TAMs; conditions: share of samples designated hypersusceptible
Description: as §1, §2, §3

[7] = test system: HIV-1 NL4-3 SDM, K65R in reverse transcriptase; test: NNRTI susceptibility of site-directed mutant (SDM) bearing only K65R in NL4-3 background; conditions: mean+/-SD of 18 replicates, p<0.00001 versus reference
Description: as §1
as §4, with “vector. In a preferred embodiment, the completion of a single round of viral replication results in the production of luciferase.” for “vector.”
(§5) Resistance tests were carried out with resistance test vectors using two host cell types. […] The resistance test vector viral particles were then used to infect a second host cell (the target host cell) in which the expression of the indicator gene is measured.
(§6) The amount of luciferase activity detected in infected cells is used as a direct measure of “infectivity,” i.e., the ability of the virus to complete a single round of replication. Thus, drug resistance or sensitivity can be determined by plotting the amount of luciferase activity produced by patient derived viruses in the presence of varying concentrations of the antiviral drug. […]

[8] = test system: HIV-1 NL4-3 SDM, L74V in reverse transcriptase; test: NNRTI susceptibility of site-directed mutant (SDM) containing L74V in NL4-3 background; conditions: relative to NL4-3
Description: as §1
as §4, with “vector. In a preferred embodiment, the completion of a single round of viral replication results in the production of luciferase.” for “vector.”
as §5, §6

Row | SMILES | % IC50 0.4 fold < WT [1] [%] | % IC50 0.4 fold < WT [2] [%] | % IC50 0.4 fold < WT [3] [%] | % IC50 0.4 fold < WT [4] [%] | % IC50 0.4 fold < WT [5] [%] | % IC50 0.4 fold < WT [6] [%] | FC (fold change in IC50) [7] | FC (fold change in IC50) [8]
1 | CC(C)Nc1cccnc1N1CCN(C(=O)c2cc3cc(NS(C)(=O)=O)ccc3[nH]2)CC1 [DLV, delavirdine] | 13.2 | 44.4 | 13.2 | 42.7 | 71.8 | 15.7 | 0.54+/−0.03 | 0.68+/−0.06
2 | O=C1Nc2ccc(Cl)cc2[C@@](C#CC2CC2)(C(F)(F)F)O1 [EFV, efavirenz] | 17.8 |  | 19.8 |  |  | 31.0 | 0.56+/−0.02 | 0.67+/−0.02
3 | Cc1ccnc2c1NC(=O)c1cccnc1N2C1CC1 [NVP, nevirapine] | 18.0 | 55.6 | 20.8 | 50.7 | 31.3 | 36.9 | 0.53+/−0.05 | 0.59+/−0.06
